Test results as given in patent US20140259881A1, “EXTERMINATION TECHNIQUES UTILIZING TERMITE EGG VOLATILE CALLING PHEROMONE AND QUEEN PHEROMONE” (National University Corporation Okayama University, priority 2009, published 2014).
“Also recorded” adds a separate entry of the source.

Key:
[1] = tested on: Reticulitermes speratus worker termites; test: Rate of carrying mimic eggs coated with reference pheromone plus volatile test sample into the egg mass; format: in vivo; details: 10% aqueous solution of sample added to lysozyme + β-glucosidase reference pheromone on 0.5 mm glass beads, 25° C., compared to no addition, Tukey-Kramer HSD test
Description: 2.0 mg of white-egg lysozyme and 1.0 mg of β-glucosidase were dissolved in a 50% aqueous solution of glycerol (a mixture of lysozyme and β-glucosidase). To this reference pheromone solution were added a 10% aqueous solution of each of the following volatile ingredient samples to examine the effect of enhancing the activity of carrying mimic eggs. The added samples were: butyl butyrate, 1-butanol, 2-butyl butyrate, 2-butanol, 2-methyl-1-butanol, and n-butyl acetate.
To 100 glass beads having a diameter of 0.5 mm were added 2.0 μL/bead of the above-described reference pheromone solution and 2.0 μL/bead of each of the test sample solutions and mixed well for coating the surface of the beads with each test sample.
At 24 hours after the start of the experiment, the rate of carrying mimic eggs into the egg mass was determined (for each of the test samples, experiments were made on the same procedures). Three repetitions were made for each treatment. Carrying rates were subjected to arcsine-root transformation, followed by statistical comparison by analysis of variance and Tukey-Kramer HSD test. […] FIGS. 6 to 11 show rates of carrying mimic eggs coated with each of the test samples into the egg mass after 24 hours.

termite = details: patent documents 2 and 3; cited from earlier work
[2] = tested on: Reticulitermes speratus worker termites; test: Inhibitory effect on the differentiation into new termite queens by queen volatile pheromone samples; details: volatile from unglazed ball, added every day; 25 days; 25° C.; compared to controls; Tukey-Kramer HSD test
[3] = tested on: Reticulitermes speratus worker termites; test: Rate of carrying mimic eggs coated with reference pheromone plus volatile test sample into the egg mass; format: in vivo; details: preliminary experiments

Row | Molecule | activity of carrying mimic eggs / egg recognition activity (rate of carrying mimic eggs after 24 hours) [1] | further results
1 | CCCCOC(=O)CCC [butyl butyrate] | no statistical significance, but were observed to have a tendency to enhance the activity of carrying mimic eggs; also recorded: enhance the activity of carrying mimic eggs, as compared to no addition, but there was no difference of statistical significance | 
2 | CCCCO [1-butanol] | remarkable increase in the egg recognition activity; also recorded: significantly enhance the activity of carrying mimic eggs | 
3 | lysozyme |  | egg-recognition pheromone activity alone (termite): demonstrated to have egg-recognition pheromone activity alone
4 | CCCCOC(C)=O [n-butyl acetate, reference compound] | no effect of enhancing the activity of carrying mimic eggs | differentiation from worker termite into new termite queens [2]: no effect of inhibiting the differentiation into new termite queens
5 | CCC(C)CO (stereo not drawn) [2-methyl-1-butanol] | remarkable increase in the egg recognition activity; also recorded: significantly enhance the activity of carrying mimic eggs | 
6 | CCCC(=O)OC(C)CC (stereo not drawn) [2-butyl butyrate] | no statistical significance, but were observed to have a tendency to enhance the activity of carrying mimic eggs; also recorded: enhance the activity of carrying mimic eggs, as compared to no addition, but there was no difference of statistical significance | 
7 | CCC(C)O (stereo not drawn) [2-butanol] | remarkable increase in the egg recognition activity; also recorded: significantly enhance the activity of carrying mimic eggs | 
8 | CCCC(=O)O [butyric acid] |  | effect of increasing the egg-carrying activity [3]: no effect of increasing the egg-carrying activity
